± gives the expanded uncertainty stated by the source.
Assay: xn = mol fraction of the nth substance listed
Details: Liquid; for electrical conductivity: Radiometer CDM 210 Meterlab conductimeter with a CDC 745-9 cell

CCCCCC[N+]1(C)CCCC1.O=S(=O)([N-]S(=O)(=O)C(F)(F)F)C(F)(F)F + CN(C)C=O
Details | electrical conductivity, 101 kPa [S/m] | viscosity, 101.3 kPa [mPa·s]
293.2 K, x2 = 0.1 | 0.155 ± 0.006 | –
293.2 K, x2 = 0.5 | 0.382 ± 0.036 | –
293.2 K, x2 = 0.9 | 1.68 ± 0.068 | –
295.2 K, x2 = 0 | – | 119.8 ± 17
295.2 K, x2 = 0.1 | 0.17 ± 0.007 | –
295.2 K, x2 = 0.104 | – | 83 ± 7.2
295.2 K, x2 = 0.205 | – | 56.7 ± 2
295.2 K, x2 = 0.301 | – | 42.9 ± 1.9
295.2 K, x2 = 0.402 | – | 28.1 ± 1.3
295.2 K, x2 = 0.5 | 0.418 ± 0.017 | 19.6 ± 0.9
295.2 K, x2 = 0.599 | – | 12 ± 0.5
295.2 K, x2 = 0.7 | – | 5.5 ± 0.3
295.2 K, x2 = 0.9 | 1.74 ± 0.07 | –
298.2 K, x2 = 0.1 | 0.191 ± 0.008 | –
298.2 K, x2 = 0.5 | 0.47 ± 0.019 | –
298.2 K, x2 = 0.9 | 1.82 ± 0.073 | –
300.2 K, x2 = 0 | – | 96.8 ± 11
300.2 K, x2 = 0.104 | – | 67.5 ± 3.7
300.2 K, x2 = 0.205 | – | 47.2 ± 2.2
300.2 K, x2 = 0.301 | – | 36.4 ± 1.6
300.2 K, x2 = 0.402 | – | 24 ± 1.1
300.2 K, x2 = 0.5 | – | 17 ± 0.7
300.2 K, x2 = 0.599 | – | 10.5 ± 0.5
300.2 K, x2 = 0.7 | – | 5.1 ± 0.3
301.2 K, x2 = 0.1 | 0.211 ± 0.009 | –
301.2 K, x2 = 0.5 | 0.522 ± 0.022 | –
301.2 K, x2 = 0.9 | 1.9 ± 0.076 | –
303.2 K, x2 = 0.1 | 0.224 ± 0.009 | –
303.2 K, x2 = 0.5 | 0.557 ± 0.023 | –
303.2 K, x2 = 0.9 | 1.96 ± 0.079 | –
305.2 K, x2 = 0 | – | 79.6 ± 6.4
305.2 K, x2 = 0.1 | 0.239 ± 0.01 | –
305.2 K, x2 = 0.104 | – | 55.8 ± 2
305.2 K, x2 = 0.205 | – | 39.8 ± 1.8
305.2 K, x2 = 0.301 | – | 30.8 ± 1.4
305.2 K, x2 = 0.402 | – | 20.9 ± 0.9
305.2 K, x2 = 0.5 | 0.592 ± 0.024 | 14.7 ± 0.7
305.2 K, x2 = 0.599 | – | 9.3 ± 0.4
305.2 K, x2 = 0.7 | – | 4.7 ± 0.2
305.2 K, x2 = 0.9 | 2.02 ± 0.081 | –
308.2 K, x2 = 0.1 | 0.26 ± 0.011 | –
308.2 K, x2 = 0.5 | 0.645 ± 0.026 | –
308.2 K, x2 = 0.9 | 2.1 ± 0.084 | –
310.2 K, x2 = 0 | – | 64.8 ± 3.3
310.2 K, x2 = 0.104 | – | 45.9 ± 2.2
310.2 K, x2 = 0.205 | – | 33.6 ± 1.5
310.2 K, x2 = 0.301 | – | 26.3 ± 1.2
310.2 K, x2 = 0.402 | – | 17.9 ± 0.8
310.2 K, x2 = 0.5 | – | 13 ± 0.6
310.2 K, x2 = 0.599 | – | 8.4 ± 0.4
310.2 K, x2 = 0.7 | – | 4.3 ± 0.2
311.2 K, x2 = 0.1 | 0.28 ± 0.011 | –
311.2 K, x2 = 0.5 | 0.697 ± 0.029 | –
311.2 K, x2 = 0.9 | 2.19 ± 0.088 | –
313.2 K, x2 = 0.1 | 0.295 ± 0.012 | –
313.2 K, x2 = 0.5 | 0.732 ± 0.029 | –
313.2 K, x2 = 0.9 | 2.24 ± 0.09 | –
315.2 K, x2 = 0 | – | 54.2 ± 1.9
315.2 K, x2 = 0.1 | 0.31 ± 0.012 | –
315.2 K, x2 = 0.104 | – | 38 ± 1.8
315.2 K, x2 = 0.205 | – | 28.8 ± 1.3
315.2 K, x2 = 0.301 | – | 22.6 ± 1
315.2 K, x2 = 0.402 | – | 15.7 ± 0.7
315.2 K, x2 = 0.5 | 0.767 ± 0.031 | 11.4 ± 0.5
315.2 K, x2 = 0.599 | – | 7.5 ± 0.3
315.2 K, x2 = 0.7 | – | 3.9 ± 0.2
315.2 K, x2 = 0.9 | 2.31 ± 0.092 | –
318.2 K, x2 = 0.1 | 0.33 ± 0.013 | –
318.2 K, x2 = 0.5 | 0.819 ± 0.033 | –
318.2 K, x2 = 0.9 | 2.39 ± 0.096 | –
320.2 K, x2 = 0 | – | 45.9 ± 2.2
320.2 K, x2 = 0.104 | – | 32.4 ± 1.5
320.2 K, x2 = 0.205 | – | 24.8 ± 1.1
320.2 K, x2 = 0.301 | – | 19.5 ± 0.9
320.2 K, x2 = 0.402 | – | 13.9 ± 0.6
320.2 K, x2 = 0.5 | – | 10 ± 0.4
320.2 K, x2 = 0.599 | – | 6.8 ± 0.3
320.2 K, x2 = 0.7 | – | 3.6 ± 0.2
321.2 K, x2 = 0.1 | 0.351 ± 0.014 | –
321.2 K, x2 = 0.5 | 0.871 ± 0.036 | –
321.2 K, x2 = 0.9 | 2.48 ± 0.099 | –
323.2 K, x2 = 0.1 | 0.365 ± 0.015 | –
323.2 K, x2 = 0.5 | 0.91 ± 0.054 | –
323.2 K, x2 = 0.9 | 2.54 ± 0.1 | –
325.2 K, x2 = 0 | – | 38.9 ± 1.9
325.2 K, x2 = 0.104 | – | 27.6 ± 1.3
325.2 K, x2 = 0.205 | – | 21.8 ± 1
325.2 K, x2 = 0.301 | – | 16.9 ± 0.8
325.2 K, x2 = 0.402 | – | 12 ± 0.5
325.2 K, x2 = 0.5 | – | 9.1 ± 0.4
325.2 K, x2 = 0.599 | – | 6.2 ± 0.3
325.2 K, x2 = 0.7 | – | 3.4 ± 0.2

CCCC[N+]1(C)CCCC1.O=S(=O)([N-]S(=O)(=O)C(F)(F)F)C(F)(F)F + CN(C)C=O
295.2 K
Details | electrical conductivity, 101 kPa [S/m] | viscosity, 101.3 kPa [mPa·s]
x2 = 0 | 0.28 ± 0.017 | 80 ± 6.8
x2 = 0.13 | – | 40.3 ± 8.7
x2 = 0.144 | 0.387 ± 0.023 | –
x2 = 0.24 | – | 29.6 ± 4
x2 = 0.252 | 0.495 ± 0.03 | –
x2 = 0.33 | – | 21.7 ± 3
x2 = 0.336 | 0.612 ± 0.037 | –
x2 = 0.403 | 0.74 ± 0.044 | –
x2 = 0.45 | – | 14.4 ± 2.3
x2 = 0.457 | 0.78 ± 0.047 | –
x2 = 0.519 | 0.981 ± 0.059 | –
x2 = 0.54 | – | 9.9 ± 1.7
x2 = 0.574 | 1.1 ± 0.066 | –
x2 = 0.637 | 1.32 ± 0.079 | –
x2 = 0.64 | – | 6.6 ± 1.3
x2 = 0.716 | 1.6 ± 0.096 | –
x2 = 0.74 | – | 3.7 ± 1.2
x2 = 0.773 | 1.85 ± 0.11 | –
x2 = 0.835 | 2.1 ± 0.13 | –
x2 = 0.871 | 2.17 ± 0.13 | –
x2 = 0.894 | 2.17 ± 0.13 | –
x2 = 0.91 | 2.12 ± 0.13 | –
x2 = 0.931 | 1.98 ± 0.12 | –
x2 = 0.953 | 1.7 ± 0.1 | –
x2 = 0.971 | 1.31 ± 0.079 | –
x2 = 0.981 | 1.01 ± 0.061 | –

CCCC[N+]1(C)CCCC1.O=S(=O)([N-]S(=O)(=O)C(F)(F)F)C(F)(F)F + Cc1cccnc1
Details | electrical conductivity [S/m]
295.2 K, 101 kPa, x2 = 0 | 0.28 ± 0.011

CCCCn1cc[n+](C)c1.F[B-](F)(F)F [1-butyl-3-methylimidazolium tetrafluoroborate] + CN(C)C=O
295.2 K, 101 kPa
Details | electrical conductivity [S/m] | viscosity [mPa·s]
x2 = 0 | 0.375 ± 0.015 | 122.9 ± 19
x2 = 0.088 | 0.464 ± 0.019 | –
x2 = 0.14 | – | 65.6 ± 14
x2 = 0.161 | 0.551 ± 0.022 | –
x2 = 0.224 | 0.629 ± 0.025 | –
x2 = 0.23 | – | 45.4 ± 8.6
x2 = 0.324 | 0.79 ± 0.032 | –
x2 = 0.33 | – | 26.3 ± 5.7
x2 = 0.366 | 0.871 ± 0.035 | –
x2 = 0.434 | 1.03 ± 0.041 | –
x2 = 0.44 | – | 16.1 ± 3.1
x2 = 0.49 | 1.17 ± 0.047 | –
x2 = 0.53 | – | 11.2 ± 1.6
x2 = 0.535 | 1.3 ± 0.052 | –
x2 = 0.606 | 1.55 ± 0.062 | –
x2 = 0.61 | – | 9.8 ± 1.4
x2 = 0.658 | 1.72 ± 0.069 | –
x2 = 0.728 | 2.01 ± 0.08 | –
x2 = 0.73 | – | 4.7 ± 1.7
x2 = 0.793 | 2.31 ± 0.093 | –
x2 = 0.828 | 2.4 ± 0.096 | –
x2 = 0.852 | 2.44 ± 0.097 | –
x2 = 0.906 | 2.44 ± 0.097 | –
x2 = 0.957 | 1.83 ± 0.073 | –
x2 = 0.973 | 1.39 ± 0.056 | –
x2 = 0.981 | 1.13 ± 0.045 | –

CCCCn1cc[n+](C)c1.F[B-](F)(F)F [1-butyl-3-methylimidazolium tetrafluoroborate] + Cc1cccnc1
Details | electrical conductivity [S/m]
295.2 K, 101 kPa, x2 = 0 | 0.378 ± 0.015

Cc1cccnc1 [3-methylpyridine] + CCCC[N+]1(C)CCCC1.O=S(=O)([N-]S(=O)(=O)C(F)(F)F)C(F)(F)F
295.2 K, 101 kPa
Details | electrical conductivity [S/m]
x1 = 0.029 | 0.353 ± 0.06
x1 = 0.057 | 0.335 ± 0.013
x1 = 0.095 | 0.367 ± 0.015
x1 = 0.153 | 0.416 ± 0.017
x1 = 0.194 | 0.445 ± 0.018
x1 = 0.249 | 0.467 ± 0.019
x1 = 0.338 | 0.522 ± 0.021
x1 = 0.387 | 0.578 ± 0.023
x1 = 0.439 | 0.606 ± 0.024
x1 = 0.49 | 0.635 ± 0.025
x1 = 0.54 | 0.686 ± 0.027
x1 = 0.591 | 0.726 ± 0.029
x1 = 0.64 | 0.761 ± 0.03
x1 = 0.691 | 0.793 ± 0.032
x1 = 0.743 | 0.814 ± 0.033
x1 = 0.794 | 0.808 ± 0.032
x1 = 0.845 | 0.771 ± 0.031
x1 = 0.896 | 0.665 ± 0.027

Cc1cccnc1 [3-methylpyridine] + CCCCn1cc[n+](C)c1.F[B-](F)(F)F
295.2 K, 101 kPa
Details | electrical conductivity [S/m]
x1 = 0.061 | 0.44 ± 0.018
x1 = 0.114 | 0.476 ± 0.019
x1 = 0.162 | 0.52 ± 0.021
x1 = 0.205 | 0.555 ± 0.022
x1 = 0.244 | 0.588 ± 0.024
x1 = 0.279 | 0.616 ± 0.025
x1 = 0.34 | 0.674 ± 0.027
x1 = 0.392 | 0.72 ± 0.029
x1 = 0.474 | 0.802 ± 0.032
x1 = 0.568 | 0.845 ± 0.034
x1 = 0.659 | 0.915 ± 0.037
x1 = 0.721 | 0.928 ± 0.037
x1 = 0.763 | 0.936 ± 0.037
x1 = 0.798 | 0.94 ± 0.038
x1 = 0.838 | 0.838 ± 0.034
x1 = 0.866 | 0.747 ± 0.03
x1 = 0.906 | 0.59 ± 0.024
x1 = 0.928 | 0.474 ± 0.019

— the NIST ThermoML archive (doi:10.1021/je0504515)
